Measurements from patent US20040176357A1, “2 Methyl-thieno-benzodiazepine lyophilized formulation” (priority 2001, published 2004).

How the values were obtained:
[1] = solubility in parenteral diluents; details: parenteral diluents suitable for injection
[2] = rate of absorption after parenteral versus oral administration; format: in vivo; details: such as IM, versus oral administration of the same dose
Procedure: Intramuscular injection is the preferred mode of delivery to the mammal being treated particularly in emergency situations. […] Preferably the lyophilized pharmaceutical formulation of this invention is diluted with aqueous solvent suitable for injection and a liquid unit dosage form prepared for administration to a mammal.

Cc1cc2c(s1)Nc1ccccc1N=C2N1CCN(C)CC1 [Form II]
solubility in parenteral diluents [1]: does not readily dissolve

Cc1cc2c(s1)Nc1ccccc1N=C2N1CCN(C)CC1 [olanzapine, 2-methyl-4-(4-methyl-1-piperazinyl)-10H-thieno[2,3-b][1,5]benzodiazepine]
rate of absorption [2]: more rapid | solubility in parenteral diluents [1]: relatively insoluble
